“Also recorded” adds a separate entry of the source.
Experiments:
[1] = system: SNU-398 cells; test: Cell viability assay (MTT/MTS); type: cell-based, human; conditions: for cell viability / number of viable cells: SNU-398 (high SALL4), 72 h; for cell viability upon SALL4 knockdown: SNU-398, MTS
Method: Cell viability was determined 72 hours after peptide treatments. Absorbance at 490 nm is directly correlated to cell viability. Wild type functional SALL4 peptide (wt), mutant non-functional SALL4 peptide (Mut.), trichostatin A (TSA), scrambled control peptide (Scr.), wild type peptide+PTEN inhibitor SF1670 (wt+Inh.) were given to the cells at the indicated concentration. PTEN inhibitor concentration was 400 nM. (31C, 31D) Western blot analyses of the effects of peptides on PTEN, AKT, and pAKT expression on SNU-398 (31C) and SNU-387 (31D) cells 72 hours following peptide treatments. 20 μM of wt or Scr. peptide or 100 nM of TSA was used. PTEN inhibitor concentration was 400 nM. (31E) Representative images show NOD/SCID mice transplanted with Scr peptide- and wt peptide-treated SNU-398 cells (left) and the dissected subcutaneous tumors (right). Arrow indicates subcutaneous tumor. (31F) Growth curve of subcutaneous tumors (left panel) and tumor weight of tumors dissected at day 26 post-transplantation (right panel). Results are mean±s.d. n=5; * P<0.05. (31G) Representative images show NOD/SCID mice transplanted with 3 million SNU-398 cells at the left flank and treated intraperitoneally for five consecutive days with 56 mg/kg body weight TAT-Mut. peptide or 60 mg/kg body weight wt peptide (top panel) and the dissected subcutaneous tumors (bottom). (31H) Tumor weight of tumors dissected at day 18 post-transplantation and post-treatment of mice treated intraperitoneally with TAT fusion peptides as described in 5 g. Results are mean±s.d. n=5; * P<0.05.
Cell viability assay (MTT) (Invitrogen) was performed according to the manufacturer's instructions. Briefly—10000 cells were seeded in 100 ul medium in 96 well plates. The next day cells were treated as indicated on the figures. At the designated time after the treatment 20 ul of 5 mg/ml MTT solution was added to each well. After 3.5 h incubation at 37 C the medium was removed and the reaction was terminated with a solution of 4 mM HCl, 0.1% Nondet P-40 (NP40) all in isopropanol in dark on orbital shaker for […]. at room temperature. The absorbance was read at 590 nm with a reference filter of 620 nm in Spectromax M3 (ABI) spectrophotometer.
Multiple leukemic and solid tumor cancer cell lines with high or low/no SALL4 expression (FIG. 10A) were chosen to test the biological effect(s) of the wild type peptide. Wild type or scrambled peptide was delivered into tumor cells at various concentrations, and their effects on cells were evaluated 72 hours post-treatment by the MTS cell viability assay. […] The effect of wild type peptide is SALL4-specific, as it had no effect on KBM5, an AML cell line with undetectable endogenous SALL4 expression. We were surprised to see that the wild type peptide had no effect on a high SALL4-expressing endometrioid cancer cell line, AN3CA. This prompted checking whether PTEN, a gene repressed by SALL4 through its interaction with NuRD 27, was present in this cell line. According to the model herein, the function of wild type peptide requires both the expression of SALL4 and intact SALL4 downstream target genes, such as PTEN. In tumor cells with PTEN deletion, even though wild type peptide could compete with endogenous SALL4 in interacting with the HDAC complex, an anti-proliferative effect might not be observed. Therefore, expression of PTEN was evaluated in AN3CA cells along with other cell lines. While PTEN protein was present in all the other cell lines, it was absent in AN3CA cells (FIG. 10C), with reported deletion mutation of the gene in this cell line 40,41. […] Furthermore, the anti-proliferative effect also required certain downstream targets, such as PTEN.
7000 cells were seeded in each wells of a microtiter plate in 100 μL of complete medium. Cells from each treatment were seeded in duplicate. Controls using the same medium without cells were set up in parallel. […]

[2] = system: c-Myc; test: c-Myc protein expression in SNU-398 cells; type: cell-based, human
Method: Also tested was whether wt peptide could affect genes that were known to be activated by SALL4, such as c-Myc. SNU-398 cells treated with wt or Scr peptide were evaluated for c-Myc protein expression. No change was observed among SNU-398 cells that were not treated or treated with either wt, Scr or TSA. When combined, the observation on the biological effects of the peptide treatment and the expression of Pten/Akt pathway in these cells, it was noticed that the wt peptide and its role in cell death promotion was correlated to its effect on the expression levels of Pten/Akt.

Compound: CC(/C=C/C(=O)NO)=C\[C@@H](C)C(=O)c1ccc(N(C)C)cc1 [TSA, Trichostatin A, reference compound]
- cell viability / number of viable cells [1]: effectively induced reduction in the number of viable HCC cells
- c-Myc protein expression [2]: No change

Compound: CTATTTAGCCAAAGGCAAA (short hairpin RNA, chemistry and delivery not given here, further chemistry not given here) [E5 shRNA]
- cell viability upon SALL4 knockdown [1]: number of viable cells decreased
- cell viability upon SALL4 knockdown ([1]; listed as E5): decreased cell viability

Compound: H-MSRRKQAKPQHI-OH [wt peptide, MSRRKQAKPQHI]
- cell viability / number of viable cells [1]: decreased cell viability; also recorded: reduced the amount of living cells in dose dependent manner
- cell viability / number of viable cells ([1]; listed as SALL4 peptide (wt)): the number of viable cells was reduced
- cell viability / number of viable cells ([1]; listed as wild type peptide): decreased cell viability
- c-Myc protein expression [2]: No change

Compound: Scr peptide: same 12 amino acids as the wt peptide, but in a scrambled sequence; negative control (SRMRQKIHPKIQ) [reference compound]
- cell viability / number of viable cells [1]: remained unaffected
- c-Myc protein expression [2]: No change

Source: US9365851B2, “Spalt-like transcription factor 4 (SALL4) and uses thereof” (National University of Singapore, priority 2011, dated 2016)
